Assay results: patent US9302999B2, “Substituted triazoles as herbicides” (E. I. DU PONT DE NEMOURS AND COMPANY, priority 2012, dated 2016)
Like-named read-outs stand apart in the source and are kept apart here.

Tests used:
Assay type in all cases: in vivo
[1] = system: johnsongrass (Sorghum halepense); assay: Test C pre-/postemergence: johnsongrass
Summary of the method: (§1)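 Visual injury scored 0–100 (100 = complete control) against untreated controls after 13–15 greenhouse days. Surfactant-containing solvent formulations applied either to soil after sowing (loam/sand) or over 1- to 4-leaf plants, 2–18 cm tall.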

[2] = system: windgrass (Apera spica-venti); assay: Test C postemergence: windgrass
Description: (§2) At the same time, plants selected from these crop and weed species and also barley (winter barley, Hordeum vulgare), canarygrass (Phalaris minor), chickweed (common chickweed, Stellaria media) windgrass (Apera spica-venti) and deadnettle (henbit deadnettle, Lamium amplexicaule) were planted in pots containing Redi-Earth® planting medium (Scotts Company, 14111 Scottslawn Road, Marysville, Ohio 43041) comprising spaghnum peat moss, vermiculite, wetting agent and starter nutrients and treated with postemergence applications of test chemicals formulated in the same manner. Plants ranged in height from 2 to 18 cm (1- to 4-leaf stage) for postemergence treatments.
(§3) Treated plants and controls were maintained in a greenhouse for 13 to 15 days, after which time all species were compared to controls and visually evaluated. Plant response ratings, summarized in Table C, are based on a scale of 0 to 100 where 0 is no effect and 100 is complete control. A dash (-) response means no test result.

[3] = system: galium (catchweed bedstraw, Galium aparine); assay: Test C pre-/postemergence: galium
Summary of the method: as §1

[4] = system: canarygrass (Phalaris minor); assay: Test C postemergence: canarygrass
Description: as §2, §3

[5] = system: sedge, umbrella (small-flower umbrella sedge, Cyperus difformis); assay: Test C flooded paddy test: sedge, umbrella; settings: scale 0 to 100 (0 no effect, 100 complete control); for pest or weed control at 62 g/ha / pest or weed control at 125 g/ha / pest or weed control at 250 g/ha / pest or weed control at 31 g/ha: Cyperus difformis, read-out: Plant response rating, Sedge, Umbrella
Summary of the method: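 Rating: visual, 0–100 (100 = complete control), versus untreated controls after 13 to 15 greenhouse days. Treatment went into paddy water held at 3 cm over the soil, on plants grown to two leaves.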

[6] = system: field violet (Viola arvensis); assay: Test D pre-/postemergence: field violet
Description: (§4) Seeds of plant species selected from bluegrass (annual bluegrass, Poa annua), blackgrass (Alopecurus myosuroides), canarygrass (Phalaris minor), chickweed (common chickweed, Stellaria media), galium (catchweed bedstraw, Galium aparine), bromegrass, downy (downy bromegrass, Bromus tectorum), field poppy (Papaver rhoeas), field violet (Viola arvensis), foxtail, green (green foxtail, Setaria viridis), deadnettle (henbit deadnettle, Lamium amplexicaule), ryegrass, Italian (Italian ryegrass, Lolium multiflorum), kochia (Kochia scoparia), lambsquarters (Chenopodium album), oilseed rape (Brassica napus), pigweed (Amaranthus retroflexus), Russian thistle (Salsola iberica), chamomile (scentless chamomile, Matricaria inodora), speedwell (bird's-eye speedwell, Veronica persica), barley, spring (spring barley, Hordeum vulgare), wheat, spring (spring wheat, Triticum aestivum), buckwheat, wild (wild buckwheat, Polygonum convolvulus), mustard, wild (wild mustard, Sinapis arvensis), oat, wild (wild oat, Avena fatua), radish, wild (wild radish, Raphanus raphanistrum), windgrass (Apera spica-venti), barley, winter (winter barley, Hordeum vulgare), and wheat, winter (winter wheat, Triticum aestivum) were planted into a silt loam soil and treated preemergence with test chemicals formulated in a non-phytotoxic solvent mixture which included a surfactant. At the same time, these same crop and weed species were planted in pots containing the planting medium comprising spaghnum peat moss, vermiculite, wetting agent and starter nutrients and treated with postemergence applications of the test chemicals formulated in the same manner. Plants ranged in height from 2 to 18 cm (1- to 4-leaf stage).
as §3, with “controlled growth environment” for “greenhouse”, “14” for “13”, “21 days” for “15 days,”, “D,” for “C,”

[7] = system: pigweed (Amaranthus retroflexus); assay: Test D pre-/postemergence: pigweed
Description: as §4
as §3, with “controlled growth environment” for “greenhouse”, “14” for “13”, “21 days” for “15 days,”, “D,” for “C,”

[8] = Postemergence, 31 g ai/ha, scale 0 to 100 (0 no effect, 100 complete control)
[9] = Postemergence, 62 g ai/ha, scale 0 to 100 (0 no effect, 100 complete control)
[10] = Postemergence, 125 g ai/ha, scale 0 to 100, 0 no effect, 100 complete control
[11] = Postemergence, 250 g ai/ha, scale 0 to 100
[12] = Preemergence, 31 g ai/ha, scale of 0 to 100, 0 is no effect, 100 is complete control
[13] = Preemergence, 62 g ai/ha, scale of 0 to 100, 0 is no effect, 100 is complete control
[14] = Preemergence, 125 g ai/ha, scale 0 to 100, 0 no effect, 100 complete control
[15] = Preemergence, 250 g ai/ha, scale 0 to 100, 0 no effect, 100 complete control
[16] = 31 g ai/ha, scale 0 to 100 (0 no effect, 100 complete control)
[17] = 62 g ai/ha, scale 0 to 100 (0 no effect, 100 complete control)
[18] = 125 g ai/ha, scale 0 to 100, 0 no effect, 100 complete control
[19] = Flood (flooded paddy test), 125 g ai/ha, visual rating after 13 to 15 days
[20] = Flood (flooded paddy test), 250 g ai/ha, visual rating after 13 to 15 days
[21] = Postemergence, 250 g ai/ha, scale 0 to 100 (0 no effect, 100 complete control)
[22] = Postemergence, 16 g ai/ha, scale 0 to 100
[23] = Preemergence, 16 g ai/ha, scale 0 to 100 (0 no effect, 100 complete control)
[24] = Preemergence, 31 g ai/ha, scale 0 to 100 (0 no effect, 100 complete control)
[25] = Preemergence, 62 g ai/ha, scale 0 to 100
[26] = Preemergence, 125 g ai/ha, scale 0 to 100
[27] = Preemergence, 250 g ai/ha, scale 0 to 100
[28] = Postemergence, 16 g ai/ha, scale 0 to 100, 0 no effect, 100 complete control
[29] = 16 g ai/ha, scale 0 to 100, 0 no effect, 100 complete control

`Cc1nn(-c2ccc(C(F)(F)F)cc2)nc1Cc1ccnc(C(F)(F)F)c1` [Compound 47, 4-[[5-methyl-2-[4-(trifluoromethyl)phenyl]-2H-1,2,3-triazol-4-yl]methyl]-2-(trifluoromethyl)pyridine] was tested, and the “Plant response rating, Johnsongrass” value [1, 8] was 0, the “Plant response rating, Johnsongrass” value [1, 9] was 10 and the “Plant response rating, Johnsongrass” value [1, 10] was 35. The “Plant response rating, Johnsongrass” value [1, 11] was 50, the “Plant response rating, Johnsongrass” value [1, 12] was 5 and the “Plant response rating, Johnsongrass” value [1, 13] was 10. The “Plant response rating, Johnsongrass” value [1, 14] was 60, the “Plant response rating, Johnsongrass” value [1, 15] was 95 and the “Plant response rating, Windgrass” value [2, 16] was 60. For the same compound, the “Plant response rating, Windgrass” value [2, 17] was 80, the “Plant response rating, Windgrass” value [2, 18] was 85 and the “Plant response rating, Windgrass” value ([2]; 250 g ai/ha, scale 0 to 100) was 100. The “Plant response rating, Galium” value [3, 8] was 80, the “Plant response rating, Galium” value [3, 9] was 80 and the “Plant response rating, Galium” value [3, 10] was 95. For the same compound, the “Plant response rating, Galium” value [3, 11] was 98, the “Plant response rating, Galium” value [3, 12] was 85 and the “Plant response rating, Galium” value [3, 13] was 100. For the same compound, the “Plant response rating, Galium” value [3, 14] was 100, the “Plant response rating, Galium” value [3, 15] was 100 and the “Plant response rating, Canarygrass” value [4, 16] was 60. For the same compound, the “Plant response rating, Canarygrass” value [4, 17] was 75, the “Plant response rating, Canarygrass” value [4, 18] was 85 and the “Plant response rating, Canarygrass” value ([4]; 250 g ai/ha, scale 0 to 100) was 90. The pest or weed control at 62 g/ha ([5]; Flood (flooded paddy test), 62 g ai/ha, visual rating after 13 to 15 days) was 85%, the pest or weed control at 125 g/ha [5, 19] was 90% and the pest or weed control at 250 g/ha [5, 20] was 90%. For the same compound, the pest or weed control at 31 g/ha ([5]; Flood, 31 g ai/ha) was 75%.
`Cc1nn(-c2ccc(F)cc2)nc1Oc1ccnc(C(F)(F)F)c1` [Compound 129, 4-[[2-(4-fluorophenyl)-5-methyl-2H-1,2,3-triazol-4-yl]oxy]-2-(trifluoromethyl)pyridine] was tested, and the “Plant response rating, Johnsongrass” value [1, 8] was 5, the “Plant response rating, Johnsongrass” value [1, 9] was 15 and the “Plant response rating, Johnsongrass” value [1, 10] was 15. The “Plant response rating, Johnsongrass” value [1, 11] was 70, the “Plant response rating, Johnsongrass” value [1, 12] was 25 and the “Plant response rating, Johnsongrass” value [1, 13] was 75. For the same compound, the “Plant response rating, Johnsongrass” value [1, 14] was 85, the “Plant response rating, Johnsongrass” value [1, 15] was 95 and the “Plant response rating, Windgrass” value [2, 16] was 60. The “Plant response rating, Windgrass” value [2, 17] was 80, the “Plant response rating, Windgrass” value [2, 18] was 85 and the “Plant response rating, Windgrass” value ([2]; 250 g ai/ha, scale 0 to 100) was 100. The “Plant response rating, Galium” value [3, 8] was 60, the “Plant response rating, Galium” value [3, 9] was 85 and the “Plant response rating, Galium” value [3, 10] was 90. The “Plant response rating, Galium” value [3, 11] was 90, the “Plant response rating, Galium” value [3, 12] was 85 and the “Plant response rating, Galium” value [3, 13] was 100. The “Plant response rating, Galium” value [3, 14] was 100, the “Plant response rating, Galium” value [3, 15] was 100 and the “Plant response rating: Field Violet” value [6, 8] was 100. The “Plant response rating: Field Violet” value [6, 9] was 100, the “Plant response rating: Field Violet” value [6, 10] was 100 and the “Plant response rating: Field Violet” value [6, 21] was 80. For the same compound, the “Plant response rating, Field Violet” value [6, 22] was 40, the “Plant response rating, Field Violet” value [6, 23] was 100 and the “Plant response rating, Field Violet” value [6, 24] was 100. The “Plant response rating, Field Violet” value [6, 25] was 100, the “Plant response rating, Field Violet” value [6, 26] was 100 and the “Plant response rating, Field Violet” value [6, 27] was 100. The “Plant response rating, Canarygrass” value [4, 16] was 30, the “Plant response rating, Canarygrass” value [4, 17] was 45 and the “Plant response rating, Canarygrass” value [4, 18] was 50. The “Plant response rating, Canarygrass” value ([4]; 250 g ai/ha, scale 0 to 100) was 85, the pest or weed control at 125 g/ha [5, 19] was 85% and the pest or weed control at 250 g/ha [5, 20] was 95%. The pest or weed control at 31 g/ha ([5]; Flood, 31 g ai/ha) was 75%, the pest or weed control at 62 g/ha ([5]; Flood, 62 g ai/ha) was 75% and the “Plant response rating: Pigweed” value [7, 8] was 100. The “Plant response rating: Pigweed” value [7, 9] was 100, the “Plant response rating: Pigweed” value [7, 10] was 100 and the “Plant response rating: Pigweed” value [7, 21] was 100. For the same compound, the “Plant response rating, Pigweed” value [7, 22] was 100, the “Plant response rating, Pigweed” value [7, 23] was 30 and the “Plant response rating, Pigweed” value [7, 24] was 80. The “Plant response rating, Pigweed” value [7, 25] was 90, the “Plant response rating, Pigweed” value [7, 26] was 100 and the “Plant response rating, Pigweed” value [7, 27] was 100.
For `Cc1nn(-c2ccc(C(F)(F)F)cc2)nc1Cc1cccc(C(F)(F)F)c1` [Compound 124], the “Plant response rating, Johnsongrass” value [1, 28] was 5, the “Plant response rating, Johnsongrass” value [1, 8] was 5 and the “Plant response rating, Johnsongrass” value [1, 9] was 40. The “Plant response rating, Johnsongrass” value [1, 10] was 45, the “Plant response rating, Windgrass” value [2, 29] was 50 and the “Plant response rating, Windgrass” value [2, 16] was 80. For the same compound, the “Plant response rating, Windgrass” value [2, 17] was 95, the “Plant response rating, Windgrass” value [2, 18] was 98 and the “Plant response rating, Galium” value [3, 28] was 70. For the same compound, the “Plant response rating, Galium” value [3, 8] was 70, the “Plant response rating, Galium” value [3, 9] was 80 and the “Plant response rating, Galium” value [3, 10] was 85. For the same compound, the “Plant response rating, Canarygrass” value [4, 29] was 0, the “Plant response rating, Canarygrass” value [4, 16] was 20 and the “Plant response rating, Canarygrass” value [4, 17] was 35. For the same compound, the “Plant response rating, Canarygrass” value [4, 18] was 85, the “Plant response rating, Sedge, Umbrella” value [5, 19] was 90 and the “Plant response rating, Sedge, Umbrella” value [5, 20] was 90. The “Plant response rating, Sedge, Umbrella” value ([5]; Flood, 31 g ai/ha) was 50 and the “Plant response rating, Sedge, Umbrella” value ([5]; Flood, 62 g ai/ha) was 90.
